Test system: hypoxia-inducible endogenous VEGF expression in HeLa cells
Experiment: Hypoxia-inducible endogenous VEGF expression, VEGF ELISA of conditioned media (dose-response EC50)
Format: cell-based
Settings: HeLa cells under hypoxic conditions
Description: The ability of the compounds of the invention to modulate hypoxia-inducible endogenous VEGF expression may be analyzed as follows. VEGF protein levels may be monitored by an ELISA assay (R&D Systems). Briefly, HeLa cells may be cultured for 24-48 hours under hypoxic conditions (1% O2, 5% CO2, balanced with nitrogen) in the presence or absence of a compound of the invention. The conditioned media may then be assayed by ELISA, and the concentration of VEGF calculated from the standard ELISA curve of each assay.
A dose-response analysis may be performed using the ELISA assay and conditions described above. The conditions for the dose-response ELISA are analogous to those described above. A series of, e.g., seven different concentrations may be analyzed. […] Dose-response curves may be plotted using percentage inhibition versus concentration of the compound, and EC50 and CC50 values may be generated for each compound with the maximal inhibition set as 100% and the minimal inhibition as 0%.

Compound	EC50 (Homo sapiens) [nM]	EC50 [nM]
COC(=O)N1CCc2c([nH]c3ccc(Cl)cc23)C1c1cccc(OC)c1 (centres unmarked) [Compound 127]	40 to 200	
CCOC(=O)N1CCc2c([nH]c3ccc(Cl)cc23)C1c1ccc(O)cc1 (centres unmarked) [Compound 128]	40 to 200	
CC(=O)N1CCc2c([nH]c3ccc(Br)cc23)C1c1ccc(Br)cc1 (centres unmarked) [Compound 129]	40 to 200	
COc1ccc(C2c3[nH]c4ccc(Br)cc4c3CCN2C(C)=O)cc1 (centres unmarked) [Compound 130]	40 to 200	
CC(=O)N1CCc2c([nH]c3ccc(Br)cc23)C1c1ccc(C)cc1 (centres unmarked) [Compound 131]	40 to 200	
Fc1cccc(C2NCCc3c2[nH]c2ccc(Br)cc32)c1F (centres unmarked) [Compound 132]	40 to 200	
COC(=O)N1CCc2c([nH]c3ccc(Cl)cc23)C1c1ccc2c(c1)OCO2 (centres unmarked) [Compound 133]	40 to 200	
COC(=O)N1CCc2c([nH]c3ccc(Cl)cc23)C1c1ccc(F)c(F)c1 (centres unmarked) [Compound 134]	40 to 200	
Clc1ccc(C2NCCc3c2[nH]c2ccc(Br)cc32)c(Cl)c1 (centres unmarked) [Compound 135]	40 to 200	
CCOC(=O)Oc1ccc(C2c3[nH]c4ccc(Cl)cc4c3CCN2C(=O)OCC)cc1 (centres unmarked) [Compound 136]	40 to 200	
Clc1cccc(C2NCCc3c2[nH]c2ccc(Br)cc32)c1 (centres unmarked) [Compound 137]	40 to 200	
ON1CCc2c([nH]c3ccc(Br)cc23)C1c1ccccc1 (centres unmarked) [Compound 138]	40 to 200	
CCOC(=O)N1CCc2c([nH]c3ccc(Cl)cc23)C1c1cccc([N+](=O)[O-])c1 (centres unmarked) [Compound 139]	40 to 200	
O=C(NC1CCCCC1)N1CCc2c([nH]c3ccc(Br)cc23)C1c1cccc(Cl)c1 (centres unmarked) [Compound 140]	40 to 200	
CCOC(=O)N1CCc2c([nH]c3ccc(Cl)cc23)C1c1ccc(Cl)cc1Cl (centres unmarked) [Compound 141]	40 to 200	
COc1ccc(C2c3[nH]c4ccc(Cl)cc4c3CCN2C(=O)Nc2ccccc2OC)cc1 (centres unmarked) [Compound 142]	40 to 200	
CCC(=O)N1CCc2c([nH]c3ccc(Cl)cc23)C1c1ccc(OC)cc1 (centres unmarked) [Compound 143]	40 to 200	
CCCC(=O)N1CCc2c([nH]c3ccc(Cl)cc23)C1c1ccc(OC)c(OC)c1 (centres unmarked) [Compound 144]	40 to 200	
CCOC(=O)N1CCc2c([nH]c3ccc(Cl)cc23)C1C1CCCCC1 (centres unmarked) [Compound 145]	40 to 200	
CCNC(=S)N1CCc2c([nH]c3ccc(Cl)cc23)C1c1ccc(OC)cc1 (centres unmarked) [Compound 146]	40 to 200	
COc1ccc(C2c3[nH]c4ccc(Cl)cc4c3CCN2C(=O)NC2CCCCC2)cc1 (centres unmarked) [Compound 147]	40 to 200	
CCOC(=O)N1CCc2c([nH]c3ccc(Br)cc23)C1c1cccc(Cl)c1Cl (centres unmarked) [Compound 148]	40 to 200	
S=C(NC1CCCCC1)N1CCc2c([nH]c3ccc(Br)cc23)C1c1cccc(Cl)c1 (centres unmarked) [Compound 150]	40 to 200	
Clc1cccc(C2NCCc3c2[nH]c2ccc(Br)cc32)c1Cl (centres unmarked) [Compound 151]	40 to 200	
CC(=O)N1CCc2c([nH]c3ccc(Br)cc23)C1c1ccccc1 (centres unmarked) [Compound 152]	40 to 200	

Compound	EC50 (Homo sapiens) [nM]	EC50 [nM]
O=[N+](O)c1ccc(C2NCCc3c2[nH]c2ccc(Br)cc32)cc1 (centres unmarked) [Compound 153]		40 to 200
COC(=O)N1CCc2c([nH]c3ccc(Cl)cc23)C1c1cc(F)ccc1F (centres unmarked) [Compound 154]	40 to 200	
Fc1cc(F)cc(C2NCCc3c2[nH]c2ccc(Br)cc32)c1 (centres unmarked) [Compound 155]	40 to 200	
Cc1ccc(C2NCCc3c2[nH]c2ccc(Br)cc32)cc1 (centres unmarked) [Compound 156]	40 to 200	
Brc1ccc(C2NCCc3c2[nH]c2ccc(Br)cc32)cc1 (centres unmarked) [Compound 157]	40 to 200	
CC(C)NC(=S)N1CCc2c([nH]c3ccc(Br)cc23)C1c1ccccc1 (centres unmarked) [Compound 158]	40 to 200	
FC(F)(F)c1ccc(C2NCCc3c2[nH]c2ccc(Cl)cc32)cc1 (centres unmarked) [Compound 159]	40 to 200	
COc1ccc(C2c3[nH]c4ccc(Cl)cc4c3CCN2C(=O)Nc2cccc(F)c2)cc1 (centres unmarked) [Compound 160]	40 to 200	
Fc1ccc(C2NCCc3c2[nH]c2ccc(Br)cc32)c(F)c1 (centres unmarked) [Compound 161]	40 to 200	
CC(C)c1ccc(C2NCCc3c2[nH]c2ccc(Cl)cc32)cc1 (centres unmarked) [Compound 162]	40 to 200	
Fc1ccc(C2NCCc3c2[nH]c2ccc(Cl)cc32)c(F)c1 (centres unmarked) [Compound 163]	40 to 200	
COc1ccc(C2c3[nH]c4ccc(Cl)cc4c3CCN2C(=O)Nc2cccc(OC)c2)cc1 (centres unmarked) [Compound 164]	40 to 200	
CCOC(=O)N1CCc2c([nH]c3ccc(Cl)cc23)C1c1cccc(O)c1 (centres unmarked) [Compound 165]	40 to 200	
C[C@H](NC(=O)OC(C)(C)C)C(=O)N1CCc2c([nH]c3ccc(Cl)cc23)C1c1ccccc1 (some centres unmarked) [Compound 166]	40 to 200	
COc1ccc(C2c3[nH]c4ccc(Cl)cc4c3CCN2C(=O)Nc2ccccc2)cc1 (centres unmarked) [Compound 167]	40 to 200	
Clc1ccc2[nH]c3c(c2c1)CCNC3c1cccc(Cl)c1Cl (centres unmarked) [Compound 168]	40 to 200	
CCOC(=O)N1CCc2c([nH]c3ccc(Cl)cc23)C1c1ccccc1OC (centres unmarked) [Compound 169]	40 to 200	
Clc1ccc2[nH]c3c(c2c1)CCNC3c1ccc(Cl)c(Cl)c1 (centres unmarked) [Compound 170]	40 to 200	
Clc1ccc2[nH]c3c(c2c1)CCNC3c1ccc(Br)cc1 (centres unmarked) [Compound 171]	200 to 1000	
CCNC(=O)N1CCc2c([nH]c3ccc(Cl)cc23)C1c1ccc(OC)cc1 (centres unmarked) [Compound 172]	200 to 1000	
Fc1cc(F)cc(C2NCCc3c2[nH]c2ccc(Cl)cc32)c1 (centres unmarked) [Compound 173]	200 to 1000	
Brc1ccc2[nH]c3c(c2c1)CCNC3c1ccccc1 (centres unmarked) [Compound 174]	200 to 1000	
CCOC(=O)Oc1cccc(C2c3[nH]c4ccc(Cl)cc4c3CCN2C(=O)OCC)c1 (centres unmarked) [Compound 175]	200 to 1000	
Clc1ccc2[nH]c3c(c2c1)CCN(Cc1ccccc1)C3c1ccc2c(c1)OCO2 (centres unmarked) [Compound 176]	200 to 1000	
COc1ccc(C2c3[nH]c4ccc(Cl)cc4c3CCN2C(=O)NC(C)C)cc1 (centres unmarked) [Compound 177]	200 to 1000	

Compound	EC50 (Homo sapiens) [nM]	EC50 [nM]
Fc1ccc(F)c(C2NCCc3c2[nH]c2ccc(Br)cc32)c1 (centres unmarked) [Compound 178]	200 to 1000	
COc1ccc(C2c3[nH]c4ccc(Cl)cc4c3CCN2C(=O)Nc2ccc(F)cc2)cc1 (centres unmarked) [Compound 179]	200 to 1000	
CCOC(=O)N1CCc2c([nH]c3ccc(Cl)cc23)C1c1ccc(-n2ccnc2)cc1 (centres unmarked) [Compound 180]	200 to 1000	
Clc1ccc(C2NCCc3c2[nH]c2ccc(Br)cc32)cc1 (centres unmarked) [Compound 181]	200 to 1000	
COc1ccc(C2c3[nH]c4ccc(Cl)cc4c3CCN2C(=O)OC(C)Cl)cc1 (centres unmarked) [Compound 182]	200 to 1000	
CCOC(=O)N1CCc2c([nH]c3ccc(Cl)cc23)C1c1ccccc1Cl (centres unmarked) [Compound 183]	200 to 1000	
CC(=O)N1CCc2c([nH]c3ccc(Cl)cc23)C1c1ccc(OCc2ccccc2)cc1 (centres unmarked) [Compound 184]	200 to 1000	
O=[N+](O)c1ccc(C2NCCc3c2[nH]c2ccc(Cl)cc32)cc1 (centres unmarked) [Compound 185]		200 to 1000
COc1ccc(NC(=O)N2CCc3c([nH]c4ccc(Cl)cc34)C2c2ccc(OC)cc2)cc1 (centres unmarked) [Compound 186]	200 to 1000	
COCC(=O)N1CCc2c([nH]c3ccc(Br)cc23)C1c1ccc(C(C)C)cc1 (centres unmarked) [Compound 187]	200 to 1000	
COc1ccc(C2c3[nH]c4ccc(Cl)cc4c3CCN2C(=O)NCc2ccccc2)cc1 (centres unmarked) [Compound 188]	200 to 1000	
CCS(=O)(=O)N1CCc2c([nH]c3ccc(Cl)cc23)C1c1ccc(OC)cc1 (centres unmarked) [Compound 189]	200 to 1000	
Clc1ccc(C2NCCc3c2[nH]c2ccc(Cl)cc32)cc1 (centres unmarked) [Compound 190]	200 to 1000	
CCOC(=O)N1CCc2c([nH]c3ccc(F)cc23)C1c1ccc(OC)cc1 (centres unmarked) [Compound 191]	200 to 1000	
COc1ccc(C2c3[nH]c4ccc(Cl)cc4c3CCN2C(=O)O[C@H]2C[C@@H](C)CC[C@@H]2C(C)C)cc1 (some centres unmarked) [Compound 192]	200 to 1000	
Cc1ccc(C2NCCc3c2[nH]c2ccc(Cl)cc32)cc1 (centres unmarked) [Compound 193]	200 to 1000	
Fc1ccc(F)c(C2NCCc3c2[nH]c2ccc(Cl)cc32)c1 (centres unmarked) [Compound 194]	200 to 1000	
CCOC(=O)N1CCc2c([nH]c3ccc(F)cc23)C1c1ccc(Br)cc1 (centres unmarked) [Compound 196]	200 to 1000	
Clc1ccc2[nH]c3c(c2c1)CCNC3c1ccccc1Cl (centres unmarked) [Compound 197]	200 to 1000	
Clc1cccc(C2NCCc3c2[nH]c2ccc(Cl)cc32)c1 (centres unmarked) [Compound 198]	200 to 1000	
CC(C)NC(=O)N1CCc2c([nH]c3ccc(Br)cc23)C1c1cccc(Cl)c1 (centres unmarked) [Compound 199]	200 to 1000	
Clc1ccc2[nH]c3c(c2c1)CCNC3c1cccc(Br)c1 (centres unmarked) [Compound 200]	200 to 1000	
Fc1ccc(C2NCCc3c2[nH]c2ccc(Br)cc32)cc1F (centres unmarked) [Compound 201]	200 to 1000	
CC(C)NC(=S)N1CCc2c([nH]c3ccc(Br)cc23)C1c1cccc(Cl)c1 (centres unmarked) [Compound 202]	200 to 1000	

Source: patent US8076352B2, “Administration of carboline derivatives useful in the treatment of cancer and other diseases” (PTC Therapeutics, Inc., priority 2004, dated 2011)
